This experiment has as its system Plasmodium falciparum. In words: GSK_TCMDC: Inhibition of Plasmodium falciparum 3D7 in whole erythrocytes, using parasite LDH activity as an index of growth. It counts as functional, organism-based. The conditions noted are these: Plasmodium falciparum, 3D7.
In the case of `COc1cccc2c(N/N=C/c3ccccc3[N+](=O)[O-])ccnc12`, the XC50 is 588 nM.

Regarding `O=C(Cn1c(CCc2cccc(F)c2F)nc(=O)c2ccccc21)N(Cc1ccc(-c2ccc(C(F)(F)F)cc2)cc1)C1CCN(C2CCSCC2)CC1`, the XC50 stood at 856 nM.

`Cc1cc2c3c(N)nc(N)nc3ccc2n1C` yielded an XC50 of 90.1 nM.

On to `Cc1ccc(C2=NNC3(S2)C(=O)N(C)c2ccccc23)cc1` (stereo not given), for which the XC50 was found to be 1020 nM.

In turn, `Cc1ccc2[nH]c(-c3cc(-c4ccc(CO)cc4)cnc3N)nc2c1` yielded an XC50 of 861 nM.

In turn, `C[C@H](Cc1ccc(C[C@@H](C)NC[C@H](O)c2cccc(Cl)c2)cc1)NC[C@H](O)COc1ccccc1` gave an XC50 of 1170 nM.

For the compound `CC(NCCc1cccc(Cl)c1)C(O)c1ccc(OCCCCCCOc2ccc(C(O)C(C)NCCc3cccc(Cl)c3)cc2)cc1` (stereo not given), the XC50 came out at 399 nM.

For `Cc1cc2ncc(C(N)=O)c(Nc3ccc(N4CCOCC4)cc3)c2cc1S(C)(=O)=O`, the XC50 stood at 675 nM.

`Cc1c(C)c2c(c(C)c1O)CCC(C)(CCC(=O)O)O2` (stereo not given) showed an XC50 of 691 nM.

With `Nc1nc(N)c2c(ccc3c2cnn3S(=O)(=O)N2CCCC2)n1`, the XC50 was found to be 18.6 nM.

`COc1cccc(NC(=O)c2nc(N3CCN(c4ccncc4)CC3)ccc2Cl)c1` gave an XC50 of 924 nM.

`COc1ccc2ncc(F)c(CCN3CCC(NCc4cc(Br)c5c(c4)OCCO5)CC3)c2n1` registered an XC50 of 190 nM.

For `COc1cc(-n2cnc3cc(-c4ccc([N+](=O)[O-])cc4)sc3c2=O)ccc1OCCN1CCCC1`, the XC50 is 775 nM.

As for `CC(C)NCc1ccc(-c2cccc(-c3nc4ccccc4[nH]3)c2)cc1`, the XC50 stood at 231 nM.

Regarding `C(=Cc1ccccc1)C=NN=c1cc[nH]c2ccccc12`, the XC50 is 725 nM.

With `CC(C)C(C(=O)Nc1ccc2c(c1)OCO2)c1ccc(Cl)cc1` (stereo not given), the XC50 came out at 717 nM.

For `O=C(c1ccc(-c2ccc(-c3nc4cc(F)ccc4[nH]3)cc2)cc1)N1CCCCC1CN1CCC(O)C1` (stereo not given), the XC50 was determined as 368 nM.

Regarding `O=C(Nc1ccc(-c2ccccc2)cc1)Nc1cccc(Cn2cnc(N3CCCNCC3)cc2=O)c1`, the XC50 was found to be 1080 nM.

`COc1ccc(NC(=O)N2CCCN(CCCCCNC(=O)/C=C/c3ccc(Cl)cc3)CC2)cc1Cl`: the XC50 is 814 nM.

Regarding `O=C(NCC1CCC(C(=O)NCCN2CCCCC2)CC1)c1ccc(O)c(-c2ccc(Cl)c(Cl)c2)c1` (stereo not given), the XC50 was 1170 nM.

In turn, `O=C(/C=C/c1ccc(C(F)(F)F)cc1)NCCCCCN1CCCN(C(=O)Nc2ccc(Cl)c(Cl)c2)CC1` yielded an XC50 of 421 nM.

In turn, `Cc1cccc2nc(-c3ccc(-c4cccc(CNCc5cccc(N)c5)c4)cc3)[nH]c12` displayed an XC50 of 390 nM.

`O=C(CC(=O)C(F)(F)F)c1ccccc1[N+](=O)[O-]` registered an XC50 of 3.2 nM.

The compound `Cc1cccc(C)c1C1CCN(CCCCNC(=O)c2cc3ccccc3[nH]2)CC1` yielded an XC50 of 892 nM.

With `CC1(CCc2ccccc2)N=C(N)N(Cc2ccccc2)C(=O)C1c1ccc(Cl)c(Cl)c1` (stereo not given), the XC50 was 805 nM.

As for `COC(=O)/C=C/c1ccc(CC(C)NCC(O)c2cccc(C(F)(F)F)c2)cc1` (stereo not given), the XC50 was found to be 731 nM.

For `COc1ccc(C=CC(=O)NC(=O)c2ccccc2OC(=O)c2ccccc2)cc1OC`, the XC50 came out at 910 nM.

Take `CC(C)C[C@H](NC(=O)c1cc2ccccc2s1)C(=O)N[C@H]1CCN(Cc2ccc(OC[C@@H]3CCCN3C)c(Cl)c2)C1`: the XC50 turned out to be 853 nM.

Regarding `CCN1CCCC1CNC(=O)c1cc2c(-c3ccc(Cl)cc3)nn(C)c2s1` (stereo not given), the XC50 came to 788 nM.

Compound `CN1CCN(c2cc(NC(=O)c3ccc(-c4ccc(Cl)cc4)cc3)ccc2Cl)CC1` yielded an XC50 of 613 nM.

Take `O=C(Nc1ccc(C(F)(F)F)cc1)c1cccc(S(=O)(=O)NC2CCN(CC3CCCCC3)CC2)c1`: the XC50 turned out to be 848 nM.

In turn, `O=C(/C=C/c1ccc(Cl)c(Cl)c1)NC1CCC(N2CCC(c3c[nH]c4ccccc34)CC2)CC1` (stereo not given) displayed an XC50 of 876 nM.

The compound `COc1ccc2c(c1CNCCCCCCNCc1c(OC)ccc3c1CCCC3)CCCC2` had an XC50 of 907 nM.

Turning to `N=c1n(CCN2CCCC2)c2ccccc2n1CC(O)c1ccc(Cl)c(Cl)c1` (stereo not given), the XC50 was determined as 277 nM.

On to `Cc1nc(Nc2ccc(F)cc2)nc(N2CCc3ccccc3C2C)c1CO` (stereo not given), for which the XC50 was determined as 741 nM.

The compound `CNC(=O)c1cnc(Nc2ccc(N3CCN(C)CC3)cc2)nc1Nc1ccccc1OC` came in with an XC50 of 928 nM.

The compound `N#Cc1cc(C(=O)c2cc(Br)ccc2O)cn(C2CCCCC2)c1=O` displayed an XC50 of 910 nM.

`COc1cccc2cc(C(=O)N[C@@H](CC(C)C)C(=O)N[C@H](/C=N/NC(=O)c3ccccc3)Cc3c[nH]cn3)oc12`: the XC50 came to 130 nM.

In turn, `N#CN1CC[C@@H](OC(=O)N[C@@H]2C[C@H]2c2ccccc2)C1` gave an XC50 of 1340 nM.

In turn, `CN1CCc2ccc(NC(=O)Nc3cccc([N+](=O)[O-])c3)cc2C1` returned an XC50 of 1100 nM.

For the compound `c1cc(-c2ccc(CN3CCN(c4ccncc4)CC3)cc2)cc(-c2nc3ccccc3[nH]2)c1`, the XC50 was determined as 140 nM.

In turn, `O=C(Nc1ccc(-c2csc(-c3nc4ccccc4[nH]3)c2)cc1)Nc1ccc(F)c(F)c1F` registered an XC50 of 330 nM.

For the compound `COc1ccc(Cl)cc1N1CCN(CCCNC(=O)c2ccc(-c3nc4cc(Cl)c(C)cc4[nH]3)c(F)c2)CC1`, the XC50 is 185 nM.

The compound `Cc1cc(N(C)C2CCN(C)C2)nc(Nc2ccc(Cl)cc2)n1` (stereo not given) had an XC50 of 336 nM.

`CCNc1cc(C(=O)N[C@@H](Cc2ccccc2)[C@H](O)CNC(C)(C)CC(C)(C)C)c(F)c(N2CCCCS2(=O)=O)c1` came in with an XC50 of 1010 nM.

Consider `COc1cc2nc(N3CCC(CNC(=O)c4ccc(-c5ccc(C(=O)N(C)C)cc5OCCN(C)C)cc4)CC3)nc(N)c2cc1OC`, for which the XC50 turned out to be 842 nM.

On to `Nc1ccc(-c2nc3cc(C4=N[C@H]5CCCC[C@H]5N4)ccc3o2)cc1[N+](=O)[O-]`, for which the XC50 was determined as 1120 nM.

The compound `Cc1[nH]c(C)c(-c2ccc(-c3ccc(OCC(F)(F)F)cc3)nc2)c(=O)c1Cl` showed an XC50 of 389 nM.

Take `CN1CCN(c2cc3c(cc2Cl)CCN3C(=O)Cc2ccc(Cl)c(NC(=O)Nc3cccc(C#N)c3)c2)CC1`: the XC50 came to 637 nM.

Regarding `COc1ccccc1C1CCN(C2CCC(NC(=O)/C=C/c3ccc(C(F)(F)F)cc3F)CC2)CC1` (stereo not given), the XC50 worked out at 990 nM.

Compound `Cc1nc(-c2ccc(-c3ccc(C(=O)Nc4ccc(C(C)C)c(OCCN(C)C)c4)cc3)c(C)c2)no1` came in with an XC50 of 870 nM.

As to `O=C(NC1CCN(c2ccnc3cc(Cl)ccc23)C1)c1ccc(F)cc1F` (stereo not given), the XC50 was 372 nM.

In turn, `COc1ccc(OC)c(C=NNc2nc3ccccc3[nH]2)c1` came in with an XC50 of 729 nM.

`C=Cc1sc(CNCCCNc2cc(=O)c3ccccc3[nH]2)c(C)c1Br` returned an XC50 of 1050 nM.

In the case of `NC(=O)c1cccc(CNC(=O)NC[C@H]2CN(Cc3ccc(Cl)c(Cl)c3)CCO2)c1`, the XC50 stood at 586 nM.

With `NCCNC(=O)c1ccc(-c2cnc3[nH]cc(-c4ccc(C(N)=O)cc4)c3c2)cc1`, the XC50 was 171 nM.

As to `O=C(NCCN1CCOCC1)c1ccc(N2CCC(Oc3ccc4ccccc4c3)CC2)nc1`, the XC50 stood at 763 nM.

Regarding `N=C(/N=C(/NCCCCCCN/C(=N\C(=N)Nc1ccc(Cl)cc1)N1CCOCC1)N1CCOCC1)Nc1ccc(Cl)cc1`, the XC50 was determined as 713 nM.

`Oc1ccc(-c2cc(-c3ccc(O)cc3)nc(-c3ccccc3)n2)cc1` registered an XC50 of 783 nM.

Regarding `Cc1ccc(Nc2nc3cc(N(C)c4ccnc(Nc5cccc(CCS(C)(=O)=O)c5)n4)ccc3n2C)cc1`, the XC50 amounted to 339 nM.

Turning to `CCOC(=O)c1ccc(NC(=O)N(Cc2ccc(-c3ccc(CN4CCNCC4)cc3)cc2)C2CCN(Cc3ccccc3)CC2)cc1`, the XC50 amounted to 797 nM.

Take `COc1cc(C(=O)NC2CC(C)(C)N(C)C(C)(C)C2)ccc1-c1nc2cc(Cl)c(Cl)cc2[nH]1`: the XC50 amounted to 788 nM.

For the compound `CN1CCN(CCCN(Cc2csc(-c3ccc(CNCc4ccccc4)cc3)n2)S(=O)(=O)c2ccc(F)cc2)CC1`, the XC50 came to 858 nM.

As to `CCCCCC(=O)N1CCOC(CCN2CCC(c3ccccc3)CC2)(c2ccc(Cl)c(Cl)c2)C1` (stereo not given), the XC50 turned out to be 1120 nM.

The compound `COc1ccc(CNC2CCN(C)CC2)cc1-c1ccc(S(=O)(=O)NC2CCC2)cc1` displayed an XC50 of 882 nM.

With `CN1CCN(Cc2ccc(-c3ccc4c(Nc5ccc(F)cc5Cl)ccnc4c3)o2)CC1`, the XC50 amounted to 143 nM.

Turning to `Cc1ccc2[nH]c(-c3ccccc3)cc(=NN=Cc3cccnc3)c2c1`, the XC50 is 691 nM.

As to `Cc1cccc2nc(-c3cccc(-c4cccc(CN5CCC(CO)CC5)c4)c3)[nH]c12`, the XC50 amounted to 724 nM.

For the compound `COc1ccc2nccc(N3C[C@H]4C[C@@H]3CN4CCNCc3ccc4c(n3)NC(=O)CS4)c2n1`, the XC50 was 973 nM.

`NC(=O)c1cccc(C(=O)Nc2ccc(-c3cccc(-c4nc5cc(C(F)(F)F)ccc5[nH]4)c3)cc2)c1`: the XC50 amounted to 350 nM.

The compound `COc1cc2nc(N3CCN(C(=O)c4cccc(I)c4)CC3)nc(N)c2cc1OC` showed an XC50 of 1320 nM.

`O=S(=O)(NC1CCN(c2ccnc3cc(Cl)ccc23)C1)c1ccc(F)cc1` (stereo not given) displayed an XC50 of 475 nM.

`CCOC(=O)c1ccc(-c2cnc(N)c(-c3nc4cccc(C)c4[nH]3)c2)cc1` gave an XC50 of 281 nM.

Compound `COc1cc(Cc2cnc(N)nc2N)cc(OCCCCCC(N)=O)c1OC` had an XC50 of 1190 nM.

As for `Oc1ccc(CCNCCCCCCNCCc2ccc(Cl)cc2)c(Cl)c1O`, the XC50 came to 775 nM.

The compound `CN(C)CCN(C)Cc1ccc(-c2ccc3c(Nc4ccc(F)cc4Cl)ccnc3c2)o1` had an XC50 of 118 nM.

For the compound `O=S(=O)(Nc1cccc(CCN2CCC(N3CCCCC3)CC2)c1)c1cccc2cccnc12`, the XC50 was determined as 851 nM.

Compound `CC(C)c1cccc(OCC2CCN(c3ccc(C(=O)Nc4ccccc4)cn3)CC2)c1` registered an XC50 of 701 nM.

Compound `COc1cc(Cc2cnc(N)nc2N)cc(OCCCCNS(=O)(=O)C(F)(F)F)c1OC` gave an XC50 of 1040 nM.

The compound `O=C(Nc1cccc(C(F)(F)F)c1)NC1CCN(c2ccnc3cc(Cl)ccc23)C1` (stereo not given) came in with an XC50 of 120 nM.

The compound `CN(CCc1ccccn1)Cc1ccc(-c2ccc(-c3nc4ccccc4[nH]3)s2)cc1` gave an XC50 of 588 nM.

The compound `Cc1ccc(C(=O)Nc2cccc(-c3ccc(N4CCN(C)CC4)nn3)c2)cc1[N+](=O)[O-]` came in with an XC50 of 334 nM.

Compound `O=C(Nc1cccc(-c2ccc(-c3nc4cc(F)ccc4[nH]3)s2)c1)c1cccnc1` had an XC50 of 608 nM.

In the case of `CCCN1CCC(c2c[nH]c3ccc(NC(=O)Nc4cccc(Cl)c4Cl)cc23)CC1`, the XC50 was 815 nM.

For `O=C1c2ccccc2C(=O)N1c1ccc(S(=O)(=O)N2CCOCC2)cc1`, the XC50 stood at 1260 nM.

Values taken from ChEMBL document CHEMBL1157539, “Thousands of chemical starting points for antimalarial lead identification” (Nature, 2010).
